Molecular target: T1, MDM2 (Homo sapiens, UniProt Q00987)
T1 construct: made in house
Test: Inhibition test of MDM2-P53 (GST-MDM2, Biotin-P53, Anti-GST-Tb, SA-XL665)
Assay type: binding
Details: labels are Example numbers; the compounds with S-configuration are meant
Procedure: Experimental purpose: To determine the inhibitory activities of the compounds of the present invention on MDM2.
The present experiment uses the following assay methods/instruments/reagents:
Buffer: 1×PBS+0.1% BSA+5 mM DTT; MDM2 Buffer: Buffer+1 mM AEBSF
GST-MDM2: The final concentration is 4 nM, and it is required to formulate a 20 nM (5×) solution. A mother liquor is diluted by 3500 folds, wherein the mother liquor is 10-fold diluted first, and then 350-fold diluted.
Anti-GST-Tb: The final concentration is 2×, and a mother liquor is diluted by 50 folds.
MIX: GST-MDM2, Biotin-P53, SA-XL665 and Anti-GST-Tb were mixed according to a ratio of 4:4:5:5.
Sample: Preparation of a sample (10 mM in DMSO) solution: a. 3 μL sample+7 μL DMSO+20 μL DMSO were formulated to give an initial concentration of 1 mM and mixed well; b. in plate 1, twelve 5-fold serial dilutions (sequentially prepared by adding 10 μL of the last sample to 40 μL DMSO) were prepared and mixed well, individually; c. plate 2 was taken, 45 μL of Buffer was added to each well, and 5 μL of dilution at each concentration was taken from plate 1 and added to the corresponding well in plate 2 (the concentration in well 1 was 100 μM), and mixed well.
1. 18 μL of MIX was added to a 384-well plate, and centrifugation was performed at 4500 rpm for 5 min.
2. 2 μL of sample was added correspondingly to each well, the resultant was centrifuged at 25° C. and 4500 rpm for 5 min, and shaked at 25° C. for 90 min on a shaker.
Readings were obtained from the Microplate reader, and data was processed by Graphpad Prism 6.0.

T1 sequence (Q00987 whole entry): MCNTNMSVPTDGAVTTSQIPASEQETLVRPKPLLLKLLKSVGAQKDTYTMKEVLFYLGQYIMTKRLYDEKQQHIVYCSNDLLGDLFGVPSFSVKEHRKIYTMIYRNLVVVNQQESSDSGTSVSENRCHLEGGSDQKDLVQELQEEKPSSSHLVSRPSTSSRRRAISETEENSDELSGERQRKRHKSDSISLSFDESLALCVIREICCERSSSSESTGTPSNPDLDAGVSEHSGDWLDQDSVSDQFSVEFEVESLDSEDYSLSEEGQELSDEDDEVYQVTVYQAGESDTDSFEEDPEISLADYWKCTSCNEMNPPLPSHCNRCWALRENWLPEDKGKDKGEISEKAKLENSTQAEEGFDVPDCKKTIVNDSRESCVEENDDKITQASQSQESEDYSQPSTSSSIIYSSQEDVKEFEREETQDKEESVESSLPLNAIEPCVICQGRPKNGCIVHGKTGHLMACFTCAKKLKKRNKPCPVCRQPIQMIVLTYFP

Row | SMILES | inhibitory effect on MDM2 compared with positive control compound HDM201
1 | COc1ccccc1-c1nc2c(n1C(C)C)C1(C(=O)Nc3cc(Cl)ccc31)N(c1cc(Cl)c(=O)n(C)c1)C2=O (stereo not drawn) [Example 53, 6-chloro-5′-(5-chloro-1-methyl-6-oxo-1,6-dihydropyridin-3-yl)-3′-isopropyl-2′-(2-methoxyphenyl)-3′H-spiro[dihydroindole-3,4′-pyrrolo[3,4-d]imidazole]-2,6′(5′H)-dione] | better
2 | COc1ccc(C)cc1-c1nc2c(n1C(C)C)C1(C(=O)Nc3cc(Cl)ccc31)N(c1cc(Cl)ccc1C)C2=O (stereo not drawn) [Example 62, 6-chloro-5′-(5-chloro-2-methylphenyl)-3′-isopropyl-2′-(2-methoxy-5-methylphenyl)-3′H-spiro[dihydroindole-3,4′-pyrrolo[3,4-d]imidazole]-2,6′(5′H)-dione] | better
3 | COc1ccc(N2C(=O)c3nc(-c4ccccc4OC)n(C(C)C)c3C23C(=O)Nc2cc(Cl)ccc23)cc1Cl (stereo not drawn) [Example 63, 6-chloro-5′-(3-chloro-4-methoxyphenyl)-3′-isopropyl-2′-(2-methoxyphenyl)-3′H-spiro[dihydroindole-3,4′-pyrrolo[3,4-d]imidazole]-2,6′(5′H)-dione] | better
4 | COc1cc(N)ccc1-c1nc2c(n1C(C)C)C1(C(=O)Nc3cc(Cl)ccc31)N(c1cc(Cl)ccc1F)C2=O (stereo not drawn) [Example 66, 2′-(4-amino-2-methoxyphenyl)-6-chloro-5′-(5-chloro-2-fluorophenyl)-3′-isopropyl-3′H-spiro[dihydroindole-3,4′-pyrrolo[3,4-d]imidazole]-2,6′(5′H)-dione] | better
5 | COc1cc(N)ccc1-c1nc2c(n1C(C)C)C1(C(=O)Nc3cc(Cl)ccc31)N(c1cc(F)cc(Cl)c1)C2=O (stereo not drawn) [Example 67, 2′-(4-amino-2-methoxyphenyl)-6-chloro-5′-(3-chloro-5-fluorophenyl)-3′-isopropyl-3′H-spiro[dihydroindole-3,4′-pyrrolo[3,4-d]imidazole]-2,6′(5′H)-dione] | better
6 | COc1ccc(CC(=O)N(C)C)cc1-c1nc2c(n1C(C)C)C1(C(=O)Nc3cc(Cl)ccc31)N(c1cc(Cl)ccc1C)C2=O (stereo not drawn) [Example 70, 2-(3-(6-chloro-5′-(5-chloro-2-methylphenyl)-3′-isopropyl-2,6′-dioxo-5′,6′-dihydro-3′H-spiro[dihydroindole-3,4′-pyrrolo[3,4-d]imidazole]-2′-yl)-4-methoxyphenyl)-N,N-dimethylacetamide] | better
7 | COc1cc(N)ccc1-c1nc2c(n1C(C)C)C1(C(=O)Nc3cc(Cl)ccc31)N(c1ccc(F)c(Cl)c1)C2=O (stereo not drawn) [Example 73, 2′-(4-amino-2-methoxyphenyl)-6-chloro-5′-(3-chloro-4-fluorophenyl)-3′-isopropyl-3′H-spiro[dihydroindole-3,4′-pyrrolo[3,4-d]imidazole]-2,6′(5′H)-dione] | better
8 | COc1cc(C(N)=O)ccc1-c1nc2c(n1C(C)C)C1(C(=O)Nc3cc(Cl)ccc31)N(c1cc(Cl)ccc1C)C2=O (stereo not drawn) [Example 77, 4-(6-chloro-5′-(5-chloro-2-methylphenyl)-3′-isopropyl-2,6′-dioxo-5′,6′-dihydro-3′H-spiro[dihydroindole-3,4′-pyrrolo[3,4-d]imidazole]-2′-yl)-3-methoxybenzamide] | better
9 | COc1cccc(OC)c1-c1nc2c(n1C(C)C)C1(C(=O)Nc3cc(Cl)ccc31)N(c1cc(Cl)ccc1C)C2=O (stereo not drawn) [Example 79, 6-chloro-5′-(5-chloro-2-methylphenyl)-2′-(2,6-dimethoxyphenyl)-3′-isopropyl-3′H-spiro[dihydroindole-3,4′-pyrrolo[3,4-d]imidazole]-2,6′(5′H)-dione] | better
10 | COc1cc(N(C)C)ccc1-c1nc2c(n1C(C)C)C1(C(=O)Nc3cc(Cl)ccc31)N(c1cc(Cl)ccc1F)C2=O (stereo not drawn) [Example 81, 6-chloro-5′-(5-chloro-2-fluorophenyl)-2′-(4-(dimethylamino)-2-methoxyphenyl)-3′-isopropyl-3′H-spiro[dihydroindole-3,4′-pyrrolo[3,4-d]imidazole]-2,6′(5′H)-dione] | better
11 | COc1nc(N)ncc1-c1nc2c(n1C(C)C)C1(C(=O)Nc3cc(Cl)ccc31)N(c1cc(Cl)ccc1C)C2=O (stereo not drawn) [Example 90, 2′-(2-amino-4-methoxypyrimidin-5-yl)-6-chloro-5′-(5-chloro-2-methylphenyl)-3′-isopropyl-3′H-spiro[dihydroindole-3,4′-pyrrolo[3,4-d]imidazole]-2,6′(5′H)-dione] | better
12 | COc1cc(OC(C)C)ncc1-c1nc2c(n1C(C)C)C1(C(=O)Nc3cc(Cl)ccc31)N(c1cccc(Cl)c1)C2=O (stereo not drawn) [Example 95, 6-chloro-5′-(3-chlorophenyl)-2′-(6-isopropoxy-4-methoxypyridin-3-yl)-3′-isopropyl-3′H-spiro[dihydroindole-3,4′-pyrrolo[3,4-d]imidazole]-2,6′(5′H)-dione] | better
13 | COc1cc(N(C)C)ncc1-c1nc2c(n1C(C)C)C1(C(=O)Nc3cc(Cl)ccc31)N(c1cc(Cl)ccc1C)C2=O (stereo not drawn) [Example 111, 6-chloro-5′-(5-chloro-2-methylphenyl)-2′-(6-(dimethylamino)-4-methoxypyridin-3-yl)-3′-isopropyl-3′H-spiro[dihydroindole-3,4′-pyrrolo[3,4-d]imidazole]-2,6′(5′H)-dione] | better
14 | COc1nc(N(C)C)ncc1-c1nc2c(n1C(C)C)C1(C(=O)Nc3cc(Cl)ccc31)N(c1cccc(Cl)c1)C2=O (stereo not drawn) [Example 112, 6-chloro-5′-(3-chlorophenyl)-2′-(2-(dimethylamino)-4-methoxypyrimidin-5-yl)-3′-isopropyl-3′ H-spiro[dihydroindole-3,4′-pyrrolo[3,4-d]imidazole]-2,6′ (5′ H)-dione] | better
15 | COc1cc(C#N)ccc1-c1nc2c(n1C(C)C)C1(C(=O)Nc3cc(Cl)ccc31)N(c1cccc(Cl)c1)C2=O (stereo not drawn) [Example 128] | better
16 | COc1cc(OC)c(-c2nc3c(n2C(C)C)C2(C(=O)Nc4cc(Cl)ccc42)N(c2cc(Cl)ccc2F)C3=O)cn1 (stereo not drawn) [Example 133, 6-chloro-5′-(5-chloro-2-fluorophenyl)-2′-(4,6-dimethoxypyridin-3-yl)-3′-isopropyl-3′H-spiro[dihydroindole-3,4′-pyrrolo[3,4-d]imidazole]-2,6′(5′H)-dione] | better
17 | COc1nc(N(C)C)ncc1-c1nc2c(n1C(C)C)C1(C(=O)Nc3cc(Cl)ccc31)N(c1cc(Cl)cnc1C)C2=O (stereo not drawn) [Example 135, 6-chloro-5′-(5-chloro-2-methylpyridin-3-yl)-2′-(2-(dimethylamino)-4-methoxypyrimidin-5-yl)-3′-isopropyl-3′H-spiro[dihydroindole-3,4′-pyrrolo[3,4-d]imidazole]-2,6′(5′H)-dione] | better
18 | COc1nc(OCCF)ncc1-c1nc2c(n1C(C)C)C1(C(=O)Nc3cc(Cl)ccc31)N(c1cc(Cl)ccc1C)C2=O (stereo not drawn) [Example 140, 6-chloro-5′-(5-chloro-2-methylphenyl)-2′-(2-(2-fluoroethoxy)-4-methoxypyrimidin-5-yl)-3′-isopropyl-3′H-spiro[dihydroindole-3,4′-pyrrolo[3,4-d]imidazole]-2,6′(5′H)-dione] | better
19 | COc1cc(C(F)(F)F)ncc1-c1nc2c(n1C(C)C)C1(C(=O)Nc3cc(Cl)ccc31)N(c1cccc(Cl)c1)C2=O (stereo not drawn) [Example 142, 6-chloro-5′-(3-chlorophenyl)-3′-isopropyl-2′-(4-methoxy-6-(trifluoromethyl)pyridin-3-yl)-3′H-spiro[dihydroindole-3,4′-pyrrolo[3,4-d]imidazole]-2,6′(5′H)-dione] | better
20 | COc1cc(OCCO)ccc1-c1nc2c(n1C(C)C)C1(C(=O)Nc3cc(Cl)ccc31)N(c1cc(Cl)ccc1C)C2=O (stereo not drawn) [Example 148, 6-chloro-5′-(5-chloro-2-methylphenyl)-2′-(4-(2-hydroxyethoxy)-2-methoxyphenyl)-3′-isopropyl-3′H-spiro[dihydroindole-3,4′-pyrrolo[3,4-d]imidazole]-2,6′(5′H)-dione] | better
21 | COc1cc(OC(F)F)ncc1-c1nc2c(n1C(C)C)C1(C(=O)Nc3cc(Cl)ccc31)N(c1cc(Cl)ccc1C)C2=O (stereo not drawn) [Example 150, 6-chloro-5′-(5-chloro-2-methylphenyl)-2′-(6-(difluoromethoxy)-4-methoxypyridin-3-yl)-3′-isopropyl-3′H-spiro[dihydroindole-3,4′-pyrrolo[3,4-d]imidazole]-2,6′(5′H)-dione] | better

— US11339171B2, “MDM2 inhibitors” (Gan & Lee Pharmaceuticals, priority 2017, dated 2022)
